Several values for one entry are separate records, joined by “and”; a condition that tells them apart may be missing. Equal entries are not always repeated.
What was measured:
[1] = target: T1, 5-HT2A (Homo sapiens (Human), UniProt P28223); experiment: Radioligand binding assay, [^3H]5-HT competition, 5-HT2A; details: [^3H]5-HT radioligand, membranes of HEK293 cells expressing recombinant 5-HT2A; Ki from IC50 by Cheng-Prusoff; read-out: 5-HT2A serotonin binding Ki value
[2] = target: 5-HT2B (Homo sapiens (Human), UniProt P41595); experiment: HTRF IP-One antagonist assay, 5-HT2B; type: cell-based; details: HEK293 cells stably expressing receptor, inositol phosphate accumulation, 80 nM 5-HT in Assay Buffer;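 note: clonal HEK293 line with low 5-HT2B expression (estimated 150-200 fmol/mg by radioligand binding), IP-One HTRF readout, 10-point curves from 10 µM in 5-fold steps, triplicate points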
[3] = target: T1, 5-HT2A; experiment: HTRF IP-One antagonist assay, 5-HT2A; type: cell-based; details: HEK293 cells stably expressing receptor, inositol phosphate accumulation, 80 nM 5-HT in Assay Buffer;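 note: clonal line with low receptor density (about 50–70 fmol/mg), 10-point dose-response from 10 µM in 5-fold steps, HTRF detection after 1 hr, triplicate points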
[4] = target: 5-HT2C (Homo sapiens (Human), UniProt P28335); experiment: HTRF IP-One antagonist assay, 5-HT2C; type: cell-based; details: HEK293 cells stably expressing receptor, inositol phosphate accumulation, 80 nM 5-HT in Assay Buffer;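 note: clonal HEK293 line with low 5-HT2C density (10–20 fmol/mg), HTRF detection of IP-One, 10-point dose curves from 10 µM in 5-fold steps, triplicate points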
5-HT2C, sequence (P28335 33-458): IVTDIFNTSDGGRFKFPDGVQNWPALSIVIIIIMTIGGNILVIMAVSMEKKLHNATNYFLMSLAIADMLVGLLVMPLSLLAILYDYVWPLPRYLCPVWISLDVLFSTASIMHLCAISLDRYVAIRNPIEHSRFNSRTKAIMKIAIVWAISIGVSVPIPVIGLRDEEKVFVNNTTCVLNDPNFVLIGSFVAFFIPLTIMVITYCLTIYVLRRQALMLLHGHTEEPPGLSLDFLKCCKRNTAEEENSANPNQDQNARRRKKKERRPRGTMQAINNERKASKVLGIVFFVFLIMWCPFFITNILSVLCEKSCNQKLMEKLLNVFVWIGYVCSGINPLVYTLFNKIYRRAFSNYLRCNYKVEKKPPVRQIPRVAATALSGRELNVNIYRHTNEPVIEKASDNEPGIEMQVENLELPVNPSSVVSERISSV

5-HT2B, sequence (P41595 whole entry): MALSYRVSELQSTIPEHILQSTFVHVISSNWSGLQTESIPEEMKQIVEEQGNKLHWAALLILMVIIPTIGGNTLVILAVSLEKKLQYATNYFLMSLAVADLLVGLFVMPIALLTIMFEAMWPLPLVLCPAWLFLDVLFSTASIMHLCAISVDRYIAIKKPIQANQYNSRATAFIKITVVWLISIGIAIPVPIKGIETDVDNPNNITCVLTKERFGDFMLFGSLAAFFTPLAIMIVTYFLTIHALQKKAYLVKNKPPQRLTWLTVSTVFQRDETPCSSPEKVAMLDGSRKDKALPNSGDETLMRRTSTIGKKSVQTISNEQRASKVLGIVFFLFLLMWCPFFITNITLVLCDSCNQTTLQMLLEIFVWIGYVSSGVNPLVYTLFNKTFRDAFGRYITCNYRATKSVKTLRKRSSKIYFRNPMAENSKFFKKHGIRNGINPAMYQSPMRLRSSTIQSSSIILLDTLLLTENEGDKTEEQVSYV
T1 sequence (P28223 whole entry): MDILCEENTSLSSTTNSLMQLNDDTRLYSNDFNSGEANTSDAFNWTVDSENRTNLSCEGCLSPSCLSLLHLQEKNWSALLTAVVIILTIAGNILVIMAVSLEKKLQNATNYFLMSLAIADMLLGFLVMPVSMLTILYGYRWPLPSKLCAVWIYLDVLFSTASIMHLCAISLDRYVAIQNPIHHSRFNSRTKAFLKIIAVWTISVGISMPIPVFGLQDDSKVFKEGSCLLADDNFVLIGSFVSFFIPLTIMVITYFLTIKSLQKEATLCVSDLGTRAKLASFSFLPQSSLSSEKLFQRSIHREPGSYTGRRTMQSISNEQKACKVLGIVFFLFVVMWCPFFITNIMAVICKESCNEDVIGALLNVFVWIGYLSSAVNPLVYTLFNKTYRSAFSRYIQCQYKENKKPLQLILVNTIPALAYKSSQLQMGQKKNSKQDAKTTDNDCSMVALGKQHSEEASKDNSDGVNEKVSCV

CO[C@@H]1CCN(CCOc2ccc(NC(=O)C3CC3)cc2-c2c(C)ncnc2C)C1 [Compound 353, (R)—N-(3-(4,6-dimethylpyrimidin-5-yl)-4-(2-(3-methoxypyrrolidin-1-yl)ethoxy)phenyl)cyclopropanecarboxamide]
Ki [1]: 4.06 nM | IC50 [2]: 100000 nM | IC50 [3]: 24.8 nM | IC50 [4]: 100000 nM

Cc1ncnc(C)c1-c1cc(NC(=O)c2cc(F)ccn2)ccc1OCCN1CCCC1 [Compound 209, N-(3-(4,6-dimethylpyrimidin-5-yl)-4-(2-(pyrrolidin-1-yl)ethoxy)phenyl)-4-fluoropicolinamide]
Ki [1]: 4.8 nM | IC50 [2]: 100000 nM | IC50 [3]: 26.2 nM | IC50 [4]: 100000 nM

Cc1ncnc(C)c1-c1cc(NC(=O)c2ccc(F)cc2)ccc1OCCN1CCC1 [Compound 309, N-(4-(2-(azetidin-1-yl)ethoxy)-3-(4,6-dimethylpyrimidin-5-yl)phenyl)-4-fluorobenzamide]
Ki [1]: 1.71 nM | IC50 [2]: 806 nM | IC50 [3]: 6.32 nM | IC50 [4]: 100000 nM

COCCNCCOc1ccc(NC(=O)C2(F)CC2)cc1-c1c(C)ncnc1C [Compound 453, N-(3-(4,6-dimethylpyrimidin-5-yl)-4-(2-((2-methoxyethyl)amino)ethoxy)phenyl)-1-fluorocyclopropane-1-carboxamide]
Ki [1]: 4.76 nM | IC50 [2]: 100000 nM | IC50 [3]: 4.84 nM | IC50 [4]: 100000 nM

Cc1ncnc(C)c1-c1cc(NC(=O)C2(F)CC2)ccc1OCCN1CCCC1 [Compound 233]
Ki [1]: 3.81 nM and 4.66 nM | IC50 [2]: 100000 nM | IC50 [3]: 8.55 nM | IC50 [4]: 100000 nM

Cc1ncnc(C)c1-c1cc(NC(=O)Cc2ccno2)ccc1OCCN1CCCC1 [Compound 263, N-(3-(4,6-dimethylpyrimidin-5-yl)-4-(2-(pyrrolidin-1-yl)ethoxy)phenyl)-2-(isoxazol-5-yl)acetamide]
Ki [1]: 10.1 nM | IC50 [2]: 100000 nM | IC50 [3]: 35.9 nM | IC50 [4]: 100000 nM

Cc1ncnc(C)c1-c1cc(NC(=O)Cc2cncs2)ccc1OCCN1CCCC1 [Compound 247, N-[3-(4,6-dimethylpyrimidin-5-yl)-4-(2-pyrrolidin-1-ylethoxy)phenyl]-2-thiazol-5-yl-acetamide]
Ki [1]: 4.47 nM | IC50 [2]: 100000 nM | IC50 [3]: 10.6 nM | IC50 [4]: 100000 nM

Cc1ncnc(C)c1-c1cc(NC(=O)CCc2cncs2)ccc1OCCN1CCCC1 [Compound 257, N-(3-(4,6-dimethylpyrimidin-5-yl)-4-(2-(pyrrolidin-1-yl)ethoxy)phenyl)-3-(thiazol-5-yl)propanamide]
Ki [1]: 14.8 nM | IC50 [2]: 100000 nM | IC50 [3]: 33.5 nM | IC50 [4]: 100000 nM

COC1(C(=O)Nc2ccc(OCCN3CCCC3)c(-c3c(C)ncnc3C)c2)CC1 [Compound 244, N-[3-(4,6-dimethylpyrimidin-5-yl)-4-(2-pyrrolidin-1-ylethoxy)phenyl]-1-methoxy-cyclopropanecarboxamide]
Ki [1]: 6.51 nM | IC50 [2]: 100000 nM | IC50 [3]: 13.5 nM | IC50 [4]: 100000 nM

Cc1ncnc(C)c1-c1cc(NC(=O)Cn2cccc2)ccc1OCCN1CCCC1 [Compound 243, N-[3-(4,6-dimethylpyrimidin-5-yl)-4-(2-pyrrolidin-1-ylethoxy)phenyl]-2-pyrrol-1-yl-acetamide]
Ki [1]: 8.59 nM | IC50 [2]: 100000 nM | IC50 [3]: 14.8 nM | IC50 [4]: 100000 nM

COCCNCCOc1ccc(NC(=O)C2CC2)cc1-c1c(C)ncnc1C [Compound 361, N-(3-(4,6-dimethylpyrimidin-5-yl)-4-(2-((2-methoxyethyl)amino)ethoxy)phenyl)cyclopropanecarboxamide]
Ki [1]: 4.33 nM | IC50 [2]: 100000 nM | IC50 [3]: 9.27 nM | IC50 [4]: 100000 nM

Cc1ncnc(C)c1-c1cc(NC(=O)c2ccnn2C)ccc1OCCN1CCC1 [Compound 304, N-[4-[2-(azetidin-1-yl)ethoxy]-3-(4,6-dimethylpyrimidin-5-yl)phenyl]-2-methyl-pyrazole-3-carboxamide]
Ki [1]: 7.25 nM | IC50 [2]: 100000 nM | IC50 [3]: 8.86 nM | IC50 [4]: 100000 nM

Cc1ncc(CC(=O)Nc2ccc(OCCN3CCCC3)c(-c3c(C)ncnc3C)c2)s1 [Compound 266, N-(3-(4,6-dimethylpyrimidin-5-yl)-4-(2-(pyrrolidin-1-yl)ethoxy)phenyl)-2-(2-methylthiazol-5-yl)acetamide]
Ki [1]: 4.11 nM | IC50 [2]: 100000 nM | IC50 [3]: 5.23 nM | IC50 [4]: 100000 nM

Cc1ncsc1C(=O)Nc1ccc(OCCN2CCCC2)c(-c2c(C)ncnc2C)c1 [Compound 214, N-(3-(4,6-dimethylpyrimidin-5-yl)-4-(2-(pyrrolidin-1-yl)ethoxy)phenyl)-4-methylthiazole-5-carboxamide]
Ki [1]: 3.25 nM | IC50 [2]: 100000 nM | IC50 [3]: 5.16 nM | IC50 [4]: 100000 nM

Cc1ncnc(C)c1-c1cc(NC(=O)C2CC2)ccc1OCCN1CCCC1 [Compound 245, N-[3-(4,6-dimethylpyrimidin-5-yl)-4-(2-pyrrolidin-1-ylethoxy)phenyl]cyclopropanecarboxamide]
Ki [1]: 4.3 nM | IC50 [2]: 100000 nM | IC50 [3]: 9.66 nM | IC50 [4]: 100000 nM

Cc1ncnc(C)c1-c1cc(NC(=O)C2(F)CC2)ccc1OC1CNC1 [Compound 398, N-(4-(azetidin-3-yloxy)-3-(4,6-dimethylpyrimidin-5-yl)phenyl)-1-fluorocyclopropane-1-carboxamide]
Ki [1]: 6.26 nM | IC50 [2]: 100000 nM | IC50 [3]: 33.8 nM | IC50 [4]: 100000 nM

Cc1ncnc(C)c1-c1cc(NC(=O)c2cccn2C)ccc1OCCN1CCCC1 [Compound 200, N-(3-(4,6-dimethylpyrimidin-5-yl)-4-(2-(pyrrolidin-1-yl)ethoxy)phenyl)-1-methyl-1H-pyrrole-2-carboxamide]
Ki [1]: 3.72 nM | IC50 [2]: 100000 nM | IC50 [3]: 11.7 nM | IC50 [4]: 100000 nM

Cc1ncnc(C)c1-c1cc(NC(=O)C2(F)CCC2)ccc1OC[C@H]1CCCCN1 [Compound 444, (R)—N-(3-(4,6-dimethylpyrimidin-5-yl)-4-(piperidin-2-ylmethoxy)phenyl)-1-fluorocyclobutane-1-carboxamide]
Ki [1]: 4.93 nM | IC50 [2]: 100000 nM | IC50 [3]: 11.8 nM | IC50 [4]: 100000 nM

Cc1ncnc(C)c1-c1cc(NC(=O)C2(CF)CC2)ccc1OCCN1CCCC1 [Compound 293, N-(3-(4,6-dimethylpyrimidin-5-yl)-4-(2-(pyrrolidin-1-yl)ethoxy)phenyl)-1-(fluoromethyl)cyclopropane-1-carboxamide]
Ki [1]: 8.56 nM | IC50 [2]: 9370 nM | IC50 [3]: 15.9 nM | IC50 [4]: 100000 nM

Cc1ncnc(C)c1-c1cc(NC(=O)c2c(F)cnn2C)ccc1OCCN1CCCC1 [Compound 290, N-[3-(4,6-dimethylpyrimidin-5-yl)-4-(2-pyrrolidin-1-ylethoxy)phenyl]-4-fluoro-2-methyl-pyrazole-3-carboxamide]
Ki [1]: 3.86 nM | IC50 [2]: 100000 nM | IC50 [3]: 7.36 nM | IC50 [4]: 100000 nM

Cc1ncnc(C)c1-c1cc(NC(=O)c2ccc(F)cc2)ccc1OCCN1CCCC1 [Compound 272, N-(3-(4,6-dimethylpyrimidin-5-yl)-4-(2-(pyrrolidin-1-yl)ethoxy)phenyl)-4-fluorobenzamide]
Ki [1]: 2.43 nM | IC50 [2]: 2680 nM | IC50 [3]: 7.8 nM | IC50 [4]: 100000 nM

Cc1ncnc(C)c1-c1cc(NC(=O)C2(F)CC2)ccc1OCCN1CCC1 [Compound 305, N-(4-(2-(azetidin-1-yl)ethoxy)-3-(4,6-dimethylpyrimidin-5-yl)phenyl)-1-fluorocyclopropane-1-carboxamide]
Ki [1]: 2.61 nM | IC50 [2]: 100000 nM | IC50 [3]: 4.44 nM | IC50 [4]: 100000 nM

Cc1ncnc(C)c1-c1cc(NC(=O)c2ccccc2F)ccc1OCCN1CCC1 [Compound 319, N-(4-(2-(azetidin-1-yl)ethoxy)-3-(4,6-dimethylpyrimidin-5-yl)phenyl)-2-fluorobenzamide]
Ki [1]: 3.62 nM | IC50 [2]: 2360 nM | IC50 [3]: 14.3 nM | IC50 [4]: 100000 nM

COc1cccc(C(=O)Nc2ccc(OCCN3CCC3)c(-c3c(C)ncnc3C)c2)c1 [Compound 310, N-(4-(2-(azetidin-1-yl)ethoxy)-3-(4,6-dimethylpyrimidin-5-yl)phenyl)-3-methoxybenzamide]
Ki [1]: 1.58 nM | IC50 [2]: 1910 nM | IC50 [3]: 3.31 nM | IC50 [4]: 100000 nM

Cc1ncnc(C)c1-c1cc(NC(=O)c2ccccc2)ccc1OCCN1CCCC1 [Compound 271, N-[3-(4,6-dimethylpyrimidin-5-yl)-4-(2-pyrrolidin-1-ylethoxy)phenyl]benzamide]
Ki [1]: 3.26 nM | IC50 [2]: 100000 nM | IC50 [3]: 6.1 nM | IC50 [4]: 100000 nM

Cc1ncnc(C)c1-c1cc(NC(=O)C2C3COCC32)ccc1OCCN1CCCC1 (centres unmarked) [Compound 232, N-(3-(4,6-dimethylpyrimidin-5-yl)-4-(2-(pyrrolidin-1-yl)ethoxy)phenyl)-3-oxabicyclo[3.1.0]hexane-6-carboxamide]
Ki [1]: 24.5 nM | IC50 [2]: 100000 nM | IC50 [3]: 140 nM | IC50 [4]: 100000 nM

Cc1ncnc(C)c1-c1cc(NC(=O)C2(F)CC2)ccc1OC[C@H]1CCCCN1 [Compound 438, N-[3-(4,6-dimethylpyrimidin-5-yl)-4-[[(2R)-2-piperidyl]methoxy]phenyl]-1-fluoro-cyclopropanecarboxamide]
Ki [1]: 9.18 nM | IC50 [2]: 100000 nM | IC50 [3]: 16.4 nM | IC50 [4]: 100000 nM

Cc1ncnc(C)c1-c1cc(NC(=O)C2CC2)ccc1OCCN1CCC1 [Compound 344, N-(4-(2-(azetidin-1-yl)ethoxy)-3-(4,6-dimethylpyrimidin-5-yl)phenyl)cyclopropanecarboxamide]
Ki [1]: 6.53 nM | IC50 [2]: 1210 nM | IC50 [3]: 10.2 nM | IC50 [4]: 100000 nM

Cc1ncnc(C)c1-c1cc(NC(=O)Cc2cncc(F)c2)ccc1OCCN1CCC1 [Compound 314, N-(4-(2-(azetidin-1-yl)ethoxy)-3-(4,6-dimethylpyrimidin-5-yl)phenyl)-2-(5-fluoropyridin-3-yl)acetamide]
Ki [1]: 5.42 nM | IC50 [2]: 100000 nM | IC50 [3]: 15.3 nM | IC50 [4]: 100000 nM

Source: US20250270172A1, “Pyrimidine Derivatives As Modulators of the 5-HT2A Serotonin Receptor Useful For The Treatment of Disorders Related Thereto” (Arena Pharmaceuticals, Inc., priority 2020, published 2025)
